The values below come from US8575338B2, “Pyrimidine, pyridine and triazine derivatives as maxi-K channel openers” (Mitsubishi Tanabe Pharma Corporation, priority 2008, dated 2013).

Each structure is given as a SMILES string.

T1 sequence (Q12791 whole entry): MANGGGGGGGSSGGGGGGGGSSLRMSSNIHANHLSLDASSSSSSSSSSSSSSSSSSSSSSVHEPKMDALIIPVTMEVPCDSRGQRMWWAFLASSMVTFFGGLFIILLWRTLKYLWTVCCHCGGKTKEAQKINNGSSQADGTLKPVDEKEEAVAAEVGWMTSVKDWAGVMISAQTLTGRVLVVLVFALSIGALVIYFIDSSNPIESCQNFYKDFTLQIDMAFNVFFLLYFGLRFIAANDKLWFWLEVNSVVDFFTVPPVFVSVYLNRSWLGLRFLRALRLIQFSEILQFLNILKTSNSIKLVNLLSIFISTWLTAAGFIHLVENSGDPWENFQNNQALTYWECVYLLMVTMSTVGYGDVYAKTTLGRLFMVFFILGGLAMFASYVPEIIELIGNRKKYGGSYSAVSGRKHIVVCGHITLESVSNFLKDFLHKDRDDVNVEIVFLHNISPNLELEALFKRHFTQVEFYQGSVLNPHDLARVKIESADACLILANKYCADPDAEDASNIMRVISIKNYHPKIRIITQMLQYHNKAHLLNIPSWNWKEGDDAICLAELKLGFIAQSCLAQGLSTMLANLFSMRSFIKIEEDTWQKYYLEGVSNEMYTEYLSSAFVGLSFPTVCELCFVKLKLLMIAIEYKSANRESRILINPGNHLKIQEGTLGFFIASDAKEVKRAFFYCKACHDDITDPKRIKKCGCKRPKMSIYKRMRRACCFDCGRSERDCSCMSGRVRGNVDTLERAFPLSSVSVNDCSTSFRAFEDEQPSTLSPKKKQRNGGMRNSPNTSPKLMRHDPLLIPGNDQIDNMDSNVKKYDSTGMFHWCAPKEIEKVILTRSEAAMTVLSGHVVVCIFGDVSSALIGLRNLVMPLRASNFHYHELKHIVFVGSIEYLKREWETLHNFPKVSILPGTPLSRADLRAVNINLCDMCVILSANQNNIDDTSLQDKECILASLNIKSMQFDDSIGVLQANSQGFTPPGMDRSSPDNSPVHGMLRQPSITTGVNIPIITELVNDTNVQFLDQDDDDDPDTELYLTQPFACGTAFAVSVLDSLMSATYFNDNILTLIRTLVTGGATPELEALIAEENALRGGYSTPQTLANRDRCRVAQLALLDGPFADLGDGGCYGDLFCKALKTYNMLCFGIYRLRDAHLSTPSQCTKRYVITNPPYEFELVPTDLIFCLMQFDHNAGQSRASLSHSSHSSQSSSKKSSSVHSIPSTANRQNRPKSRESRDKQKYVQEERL
T1 sequence (Q16558 whole entry partner): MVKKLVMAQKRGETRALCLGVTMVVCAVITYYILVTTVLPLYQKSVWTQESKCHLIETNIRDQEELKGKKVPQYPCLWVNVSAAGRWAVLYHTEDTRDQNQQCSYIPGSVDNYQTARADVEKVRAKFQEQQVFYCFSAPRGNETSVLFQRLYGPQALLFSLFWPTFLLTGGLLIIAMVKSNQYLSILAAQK

The experiment concerns the target T1, human BKαβ1 channels (Homo sapiens, UniProt Q12791).
T1 construct: expressed in transfected cells; host or cells: CHO cells (G418 and hygromycin selection)
In words: BK current in CHO cells expressing human BKαβ1 (PatchXpress whole-cell patch clamp), EC100. The experiment is classed as cell-based. To be noted: drug concentration causing 100% increase of BK current. As to the method:
Methods for Testing Compounds on Human BKαβ1 Channels Expressed Cho Cells
CHO cells expressing human BKαβ1 were cultured in T75 or 6 well cell culture cluster. Medium: DMEM/F12+10% FBS+0.5 mg/mL G418/genetecin+0.1 mg/mL Hygromycin. Split cells every 3-4 days at 80-90% confluence. Use cells for experiments 60-72 hrs after re-passage and at ˜90% confluence.
Trypsin solution (0.05% Trypsin+0.1% EDTA), Ca^2+ free PBS and culture medium were warmed to 37° C. Inspect the T75 flask for cell confluence. Remove culture medium and add warm Ca^2+ free PBS to wash cells. Remove Ca^2+ free PBS and add warm Trypsin solution. Put the T75 flask back to 37° C. incubator for about 4.5 minutes. Stop Trypsin activity by adding culture medium. Spin the cells down. Suspend cells in 120-160 μL external solution for BK current recording and use the cells as soon as possible.
PatchXpress Sealchip 16 electrodes (AVIVA Biosciences) and PatchXpress 7000A (Axon Instruments, Inc) were used for BK current recording. Flat bottom 1.5 mL glass vial (HiPep Laboratories) were used for containing external solutions (±compounds). The holes in the sealchip (equivalent to patch electrode) had resistance about 1.5 MΩ. Cell membrane capacitance was compensated and access resistance was also compensated by 40%. Voltage-clamp protocol: Holding voltage=0 mV. Record BK current during 200-ms steps between +80 to +120 mV in 10 mV increments and 2 sec inter-pulse interval. On-line digital leak subtraction was performed by a P/−4 procedure. After whole-cell configuration was established, 2 minute was used to optimize access resistance. Then the chamber was washed with control bath solution for 1 minute to remove excessive cells. Control bath solution was added with robotic pipette and control BK current was recorded after 1 minute equilibrium time. For each drug concentration, 45 μL drug solution was added three times with “suction before adding” mode which left old solution. For each drug addition, 1 minute equilibrium time was given. BK current was measured at each drug concentrations (usually within 3.5 minutes after first drug addition). Calculate % change of BK current at the voltage step when the control BK current first exceeding 200 pA. If the control BK current was less than 200 pA at 120 mV, the cell was not used. % changes were calculated as 100*(Id−Ic)/Ic, where Id was the current amplitude in the presence of drug and Ic was the control current amplitude.
EC100 was defined as the drug concentration causing 100% increase of BK current calculated by the method described above. EC100 was determined by the data points just below and above 100%. % Increase of BK current was plotted against log [drug concentration]. A straight line connected two data points flanking 100%. From this straight line, the concentration corresponding to 100% increase of BK current was determined as EC100.
Compounds were dissolved in DMSO to make 10 mM stock solutions. Subsequent dilutions were made with external solution. The testing drug concentrations were 0.1, 0.3, 1, 3 and 10 μM depending on the potency of compounds. The highest DMSO concentration was 0.1%. External solution (in mM): 140 NaCl, 4 KCl, 1 MgCl2, 2 CaCl2, 10 Glucose, 10 HEPES; pH=7.4 with NaOH. Internal solution (in mM): 140 KCl, 5 EGTA, 1 MgCl2, 5 MgATP, 0.2 CaCl2, 5 HEPES; pH=7.2 with KOH.
(The patch-clamp technique gives a direct electrical read-out from membranes.)
In turn, `O=C([O-])C1(Oc2cc(-c3ccc(F)cc3)nc(-c3ccc(Cl)c(F)c3)n2)CC1.[Na+]` [Example 512] came in with an EC100 of 0.14 µM.

For `COc1ccc(-c2cc(OC3(C(=O)[O-])CC3)nc(-c3ccc(Cl)c(F)c3)n2)cc1F.[Na+]` [Example 518], the EC100 came out at 0.1 µM.

The molecule `COc1cc(F)cc(-c2cc(OC3(C(=O)[O-])CC3)nc(-c3ccc(Cl)c(F)c3)n2)c1.[Na+]` [Example 519] registered an EC100 of 0.12 µM.

In turn, `COc1ccc(F)cc1-c1cc(OC2(C(=O)[O-])CC2)nc(-c2ccc(Cl)c(F)c2)n1.[Na+]` [Example 520] gave an EC100 of 0.32 µM.

The molecule `COc1cc(-c2cc(OC3(C(=O)[O-])CC3)nc(-c3ccc(Cl)c(F)c3)n2)ccc1F.[Na+]` [Example 522] had an EC100 of 0.39 µM.

For the molecule `COCc1cccc(-c2cc(OC3(C(=O)[O-])CC3)nc(-c3ccc(Cl)c(F)c3)n2)c1.[Na+]` [Example 526], the EC100 came out at 0.36 µM.

Regarding `O=C([O-])C1(Oc2cc(-c3ccc4c(c3)OCCO4)nc(-c3ccc(Cl)c(F)c3)n2)CC1.[Na+]` [Example 529], the EC100 turned out to be 0.12 µM.

Regarding `CCOc1ncccc1-c1cc(OC2(C(=O)[O-])CC2)nc(-c2ccc(Cl)c(F)c2)n1.[Na+]` [Example 533], the EC100 turned out to be 0.5 µM.

Turning to `N#Cc1cccc(-c2cc(OC3(C(=O)[O-])CC3)nc(-c3ccc(Cl)c(F)c3)n2)c1.[Na+]` [Example 548], the EC100 amounted to 0.29 µM.

As to `N#Cc1ccc(-c2cc(OC3(C(=O)[O-])CC3)nc(-c3ccc(Cl)c(F)c3)n2)cc1.[Na+]` [Example 549], the EC100 worked out at 0.33 µM.

Molecule `O=C([O-])C1(Oc2cc(-c3ccccc3O)nc(-c3ccc(Cl)c(F)c3)n2)CC1.[Na+]` [Example 552] returned an EC100 of 0.2 µM.

On to `CCOc1cccc(-c2cc(OC3(C(=O)[O-])CC3)nc(-c3ccc(Cl)c(F)c3)n2)c1.[Na+]` [Example 553], for which the EC100 is 0.1 µM.

`O=C([O-])C1(Oc2cc(-c3cccc(C(F)(F)F)c3)nc(-c3ccc(Cl)c(F)c3)n2)CC1.[Na+]` [Example 555] yielded an EC100 of 0.3 µM.

In turn, `O=C([O-])C1(Oc2cc(-c3cccc(C(F)(F)F)c3)nc(-c3ccc(Cl)c(F)c3)n2)CC1.[Na+]` [Example 556] showed an EC100 of 0.03 µM.

In turn, `O=C([O-])C1(Oc2cc(-c3ccc(F)cc3O)nc(-c3ccc(Cl)c(F)c3)n2)CC1.[Na+]` [Example 558] came in with an EC100 of 0.04 µM.

Molecule `O=C([O-])C1(Oc2cc(-c3nccs3)nc(-c3ccc(Cl)c(F)c3)n2)CC1.[Na+]` [Example 559] yielded an EC100 of 0.36 µM.

On to `O=C([O-])C1(Oc2cc(-c3cncc(Cl)c3)nc(-c3ccc(Cl)c(F)c3)n2)CC1.[Na+]` [Example 563], for which the EC100 is 0.01 µM.

In turn, `COc1ncccc1-c1cc(OC2(C(=O)[O-])CCCC2)nc(-c2ccc(Cl)c(F)c2)n1.[Na+]` [Example 566] gave an EC100 of 0.56 µM.

`O=C([O-])C1(Oc2cc(-c3nccs3)nc(-c3ccc(Cl)c(F)c3)n2)CCCC1.[Na+]` [Example 570] displayed an EC100 of 2.15 µM.

For `COc1ccc(F)c(-c2cc(OC3(C(=O)[O-])CCOCC3)nc(-c3ccc(Cl)c(F)c3)n2)c1.[Na+]` [Example 572], the EC100 worked out at 1.07 µM.

For the molecule `COc1cc(F)cc(-c2cc(OC3(C(=O)[O-])CCOCC3)nc(-c3ccc(Cl)c(F)c3)n2)c1.[Na+]` [Example 573], the EC100 stood at 0.05 µM.

As to `COc1cc(F)ccc1-c1cc(OC2(C(=O)[O-])CC2)nc(-c2cccc(F)c2)n1.[Na+]` [Example 613], the EC100 came to 0.12 µM.

In turn, `COCCN(CC(=O)O)c1cc(-c2ccc(F)cc2)nc(-c2ccc(Cl)c(F)c2)n1` [Example 646] yielded an EC100 of 1.23 µM.

With `O=C([O-])C1(Oc2cc(N3CCN(c4ncccn4)CC3)nc(-c3ccc(Cl)c(F)c3)n2)CC1.[Na+]` [Example 664], the EC100 stood at 1.29 µM.

The molecule `O=C(O)C1(Nc2cc(-c3ccc(F)cc3)nc(-c3ccc(Cl)c(F)c3)n2)CC1` [Example 706] gave an EC100 of 0.16 µM.
